Measurements from paper PMC3082566, “PTB Domain-Directed Substrate Targeting in a Tyrosine Kinase from the Unicellular Choanoflagellate Monosiga brevicollis” (PLoS ONE, 2011).
Entries after “also recorded” stand apart in the source; their conditions may differ.

Assays:
HMTK1 PTB domain = test: Peptide array (PepSpots) probed with biotinylated HMTK1 PTB domain; format: binding, Monosiga brevicollis; settings: 10 µg/ml PTB, 5% BSA, 20 mM Hepes pH 7.3, 30 min at room temperature; streptavidin-HRP chemiluminescence; Fig. 4A
Text: The PTB domain of HMTK1 was cloned as an EcoR1 fragment into a modified pGEX (GE Healthcare Life Sciences) bicistronic vector pGEX-4T-BiotinN to express the gene of interest and the biotin ligase (BirA) in the same cell ([19]; Chan et al., in press). […] The resulting pGEX-BiotinN-PTB construct was transformed into E. coli BL21(DE3) cells for expression. GST-biotin-PTB protein was purified using glutathione-agarose and desalted using a PD-10 (GE Healthcare) gel filtration column.
N-terminally acetylated 11-residue peptides were synthesized using standard chemistry in situ (PepSpots) on cellulose based matrix (Jerini Biotools). To ensure protein accessibility, each peptide contained a 4-residue spacer consisting of a glycine and 3 β-alanines. All peptides were immobilized via their C-termini. […] Prior to usage, peptide array membranes were washed in binding buffer (20 mM Hepes pH 7.3, 137 mM NaCl, 5 mM KCl, 0.05% Tween-20) and blocked with 5% filtered bovine serum albumin in the same buffer. […] After washing in binding buffer (3×10 min), bound PTB was detected using enhanced chemiluminescence and standard X-ray film.
Figure 4 Peptide array experiment. […] Bound PTB domain was detected using streptavidin-HRP and enhanced chemiluminescence. […]

HMTK1 [1] = test: Binding of purified HMTK1 to immobilized PTB ligand peptides; design: species or system Monosiga brevicollis; settings: 6.6 µg HMTK1; peptide on Affi-Gel resin; 1 hour at 4°C; anti-His6 Western; Fig. 5A
Method: (§1) The PTB ligand-containing peptide, Phe-containing PTB control, and pYEEI peptide (EPQpYEEIG) were linked to Affi-Gel 15 resin (Bio-Rad) following the manufacturer's protocols. Purified HMTK1 or the isolated PTB domain were incubated for 1 hour at 4°C with the immobilized peptides. After binding, the beads were washed 4 times with 1 ml of binding buffer (50 mM Tris-HCl pH 7.5, 5 mM EDTA, 100 mM NaCl, 0.1% Triton X-100, 1 mM DTT, 0.5 mM Na3VO4). Bound proteins were eluted with SDS-PAGE loading buffer, separated by 10% SDS-PAGE, and visualized either by Coomassie blue staining or by Western blotting.
Figure 5 Substrate targeting by PTB ligand. (A) Purified HMTK1 (6.6 µg) was incubated with PTB ligand-containing substrate ([…]pYATLG), PTB control substrate ([…]), pYEEI peptide, or control resin in final volumes of 60 µl. After washing, bound proteins were eluted with SDS-PAGE sample buffer and analyzed by Western blotting with anti-His6-tag antibody. (B) The kinase activity of HMTK1 (300 nM) toward the PTB ligand-containing substrate or PTB control substrate (shown schematically) was determined using the phosphocellulose paper assay. The reaction contained 20 mM Tris-HCl (pH 7.4), 10 mM MgCl2, 0.2 mM ATP, 30 µM peptide, and [γ-^32P]-ATP. […] Incorporation of ^32P into the peptides was determined by scintillation counting.

HMTK1 [2] = test: Substrate targeting: phosphorylation of PTB ligand-containing substrate and control by HMTK1; format: biochemical, Monosiga brevicollis; settings: 30 µM peptide, 300 nM HMTK1, 20 mM Tris-HCl pH 7.4, 10 mM MgCl2, 0.2 mM ATP, Fig. 5B
Method: Kinase assays were performed by two methods. Initial activity measurements were performed by the phosphocellulose paper binding assay. Reaction mixtures contained 20 mM Tris-HCl (pH 7.4), 10 mM MgCl2, 0.2 mM ATP, [γ-^32P]-ATP (30–50 cpm/pmol), and varying amounts of HMTK1 and peptide substrates. All peptide substrates were purified by high pressure liquid chromatography and characterized by mass spectrometry prior to use. The following substrates were used: c-Src peptide, […]; MbSTAT peptide, […]; RTKB2 peptide 1, […]; RTKB2 peptide 2, […]; SH2 binding substrates (varying linker lengths), […]pYEEIG, […]pYEEIG, and […]pYEEIG; SH2 control substrate, […]. […] Kinetic constants were determined by nonlinear fitting to the [substrate] vs. velocity curves using GraphPad Prism 4.
Figure 5 Substrate targeting by PTB ligand. […] After washing, bound proteins were eluted with SDS-PAGE sample buffer and analyzed by Western blotting with anti-His6-tag antibody. (B) The kinase activity of HMTK1 (300 nM) toward the PTB ligand-containing substrate or PTB control substrate (shown schematically) was determined using the phosphocellulose paper assay. […] Incorporation of ^32P into the peptides was determined by scintillation counting.

HMTK1 [3] = test: Steady-state kinetics, continuous spectrophotometric assay; format: biochemical, Monosiga brevicollis; settings: HMTK1 0.3–0.5 µM, peptide 0–700 µM, 100 mM Tris pH 7.4, 10 mM MgCl2, 2 mM ATP, 30°C
Method: Kinase assays were performed by two methods. Initial activity measurements were performed by the phosphocellulose paper binding assay. Reaction mixtures contained 20 mM Tris-HCl (pH 7.4), 10 mM MgCl2, 0.2 mM ATP, [γ-^32P]-ATP (30–50 cpm/pmol), and varying amounts of HMTK1 and peptide substrates. All peptide substrates were purified by high pressure liquid chromatography and characterized by mass spectrometry prior to use. The following substrates were used: c-Src peptide, […]; MbSTAT peptide, […]; RTKB2 peptide 1, […]; RTKB2 peptide 2, […]; SH2 binding substrates (varying linker lengths), […]pYEEIG, […]pYEEIG, and […]pYEEIG; SH2 control substrate, […]. Initial rate kinetic measurements on the PTB ligand-containing substrate ([…]pYATLG) and on the Phe-containing PTB control ([…]) were carried out using a continuous spectrophotometric assay. Reactions were performed at 30°C in a final volume of 50 µl. The reactions contained 100 mM Tris pH 7.4, 10 mM MgCl2, 2 mM ATP, 1.5 mM phosphoenolpyruvate, 90 units/ml of pyruvate kinase, 109 units/ml of lactate dehydrogenase, and 1.2 mg/ml of NADH. For determination of Km values, the enzyme concentrations were 0.3–0.5 µM and the peptide concentrations ranged from 0–700 µM. Kinetic constants were determined by nonlinear fitting to the [substrate] vs. velocity curves using GraphPad Prism 4.

Hck = settings: Src family kinase Hck with the same peptide; ref [24]; cited from earlier work
Text: We selected a pair of peptides for further study. […] We synthesized an individual peptide in which the sequence NFTNPVpYATG was connected to a tyrosine kinase substrate sequence.

SYF cells = test: Anti-phosphotyrosine Western blotting of SYF cell lysates; format: cell-based, mammalian; settings: 0.1 or 1.0 mM sodium orthovanadate, 20 minutes, 37°C; Fig. S4B
Method: SYF cells were cultured in Dulbecco's modified Eagle's medium (Mediatech, Inc.) supplemented with 10% fetal bovine serum (Sigma) and 1000 UI/ml penicillin, 1000 UI/ml streptomycin and 25 ng/ml amphotericin B (Mediatech, Inc.). SYF cells (2.25×10^6) were plated in 15-cm diameter dishes and transfected after 24 hours using 5–15 µg of DNA and 2 µl TransIT per µg DNA. After 48 hours, the cells were harvested, washed twice with PBS and lysed using radioimmune precipitation assay (RIPA) buffer (50 mM Tris-HCl pH 7.4, 150 mM NaCl, 5 mM EDTA, 1% sodium deoxycholate, 1% Nonidet P-40) supplemented with the protease inhibitors leupeptin (10 µg/ml), aprotinin (10 µg/ml), PMSF (200 µM) and the phosphatase inhibitors Na3VO4 (0.2 mM) and NaF (10 mM). Lysates (50 µg) were separated by 10% SDS-PAGE, transferred to PVDF membranes and probed with the appropriate antibodies. For immunoprecipitation, cell lysates (100 µg) were incubated overnight at 4°C with 40 µl of EZview red anti-Flag M2 affinity gel pre-equilibrated with RIPA buffer in a total volume of 1 ml. The immunocomplexes were washed 4 times, eluted from the beads by adding Laemmli buffer, separated by SDS-PAGE, transferred to PVDF membranes and probed with the appropriate antibodies.
Whole cell lysates were analyzed by SDS-PAGE and Western blotting with anti-pTyr, anti-FLAG, or anti-tubulin antibodies, as indicated. […]

HMTK1 [4] = test: Binding of purified HMTK1 to immobilized pYEEI peptide; design: species or system Monosiga brevicollis; settings: 20 µg protein, 30 µl immobilized peptide, 1 hour at 4°C; Coomassie; Fig. 3A
Method: as §1
(§2) Figure 3 Binding reactions with pYEEI-containing peptide. (A). Purified HMTK1 or c-Src (20 µg) were mixed with 30 µl of immobilized pYEEI peptide (pY) or control resin (C) in total volumes of 175 µl for 1 hour at 4°C. After binding, the resins were washed 4 times with 200 µl of binding buffer. Bound proteins were eluted with SDS-PAGE sample buffer and analyzed by gel electrophoresis with Coomassie blue staining. (B). The isolated HMTK1 PTB domain (8 µg) was incubated with 50 µl of immobilized pYEEI peptide (pY) or control resin (C) in total volumes of 400 µl for 1 hour at 4°C. After washing, bound proteins were eluted with SDS-PAGE sample buffer and analyzed by Western blotting with anti-GST antibody. (C). […] After washing, bound proteins were analyzed by anti-FLAG Western blotting. […]

c-Src = test: Binding of purified Src to immobilized pYEEI peptide; settings: positive control; 20 µg protein, 30 µl immobilized peptide, 1 hour at 4°C; Coomassie; Fig. 3A
Method: as §1, §2

[5] = tested on: isolated HMTK1 PTB domain; test: Pulldown of isolated HMTK1 PTB domain with immobilized pYEEI peptide; format: binding, Monosiga brevicollis; settings: 8 µg PTB domain, 50 µl immobilized peptide, 1 hour at 4°C; anti-GST Western; Fig. 3B
Method: HMTK1 was expressed in Spodoptera frugiperda (Sf9) insect cells using the Bac-to-Bac system (Invitrogen). Sf9 cells (800 ml) were infected with HMTK1 baculovirus and harvested after three days. Cells were lysed in a French pressure cell, and His-tagged HMTK1 was purified using nickel-nitrilotriacetic acid resin (Qiagen), as described previously. Peak fractions were pooled and concentrated in an Amicon Ultrafiltration device (molecular weight cutoff: 30,000 daltons). The purified protein was stored in 40% glycerol at −20°C. The isolated PTB domain of HMTK1 was produced as a fusion with glutathione S-transferase (GST). E. coli cells (1 liter) expressing the GST fusion protein were lysed in a French pressure cell, and the GST-PTB protein was purified by chromatography on a glutathione-agarose column (Molecular Probes).
The PTB ligand-containing peptide, Phe-containing PTB control, and pYEEI peptide (EPQpYEEIG) were linked to Affi-Gel 15 resin (Bio-Rad) following the manufacturer's protocols. […]
(§3) Figure 3 Binding reactions with pYEEI-containing peptide. […] Bound proteins were eluted with SDS-PAGE sample buffer and analyzed by gel electrophoresis with Coomassie blue staining. […] After washing, bound proteins were eluted with SDS-PAGE sample buffer and analyzed by Western blotting with anti-GST antibody. […] After washing, bound proteins were analyzed by anti-FLAG Western blotting. […]

[6] = tested on: FLAG-tagged wild-type HMTK1; test: Pulldown of FLAG-tagged wild-type HMTK1 from SYF cell lysates with immobilized peptides; format: binding, Monosiga brevicollis; settings: immobilized peptide; anti-FLAG Western; Fig. 3C
Method: (§4) For expression in insect cells, HMTK1 DNA (encoding residues 341–761) was cloned into the EcoRI site of pFastbac-Hta (Invitrogen). FLAG-tagged HMTK1 was expressed in mammalian cells by subcloning into the BglII and BamHI sites of p3XFLAG-CMV (Sigma). The ΔPTB version of this construct was prepared by PCR amplification and subsequent recloning into the BamHI and EcoRI sites of p3XFLAG-CMV. Site-directed mutagenesis of FLAG-HMTK1 was carried out using the QuikChange kit (Stratagene). To express the isolated third PTB domain (residues 341–474) in bacterial cells, this PCR fragment was cloned into the EcoRI site of plasmid pGEX-4T-1 (GE Healthcare). All constructs were confirmed by DNA sequencing.
(§5) The PTB ligand-containing peptide, Phe-containing PTB control, and pYEEI peptide (EPQpYEEIG) were linked to Affi-Gel 15 resin (Bio-Rad) following the manufacturer's protocols. Purified HMTK1 or the isolated PTB domain were incubated for 1 hour at 4°C with the immobilized peptides. […]
as §3

FLAG-tagged ΔPTB HMTK1 = test: Pulldown of FLAG-tagged ΔPTB HMTK1 from SYF cell lysates with immobilized pYEEI; format: binding, Monosiga brevicollis; settings: immobilized peptide; anti-FLAG Western; Fig. 3C
Method: as §4, §5, §3

TNFTNPVYATLG
binding of biotinylated PTB domain to array peptides, phosphorylated vs unphosphorylated (HMTK1 PTB domain): bound much more strongly in the phosphorylated state

KKAEEEIYGEFEANFTNPVpYATLG [pTyr peptide]
binding to purified HMTK1 (HMTK1 [1]): bound | phosphorylation by HMTK1 compared to Phe control (HMTK1 [2]; listed as pTyr-containing peptide): preferentially phosphorylated | phosphorylation by HMTK1 compared to Phe control (HMTK1 [2]; listed as synthetic peptide containing this sequence (with pTyr)): phosphorylated more efficiently | Vmax (HMTK1 [3]): 4.9 µmol/min/mg enzyme | Km (HMTK1 [3]; nonlinear fitting): 33 µM | Vmax (Hck) (Hck): 3.0 µmol/min/mg enzyme

sodium orthovanadate
overall phosphorylation in SYF cells (SYF cells): enhanced overall phosphorylation

EPQpYEEIG [Src SH2 ligand peptide linked to Affi-Gel 15 resin]
binding to purified HMTK1 (HMTK1 [4]): bound | binding to purified Src (c-Src): bound | binding to isolated HMTK1 PTB domain [5]: pYEEI-binding activity was localized to the PTB domain; also recorded: bound | binding to wild-type HMTK1 (SYF lysate) [6]: bound | binding to ΔPTB HMTK1 (SYF lysate) (FLAG-tagged ΔPTB HMTK1): did not
